Results published in patent US10653756B2, “Identification of CD8+ T cells that are CD161hi and/or IL18R(α)hi and have rapid drug efflux capacity” (FRED HUTCHINSON CANCER RESEARCH CENTER, priority 2008, dated 2020).

Experiments:
[1] = tested on: CMhi and EMhi CD8+ T cells; test: Daunorubicin-induced apoptosis of sorted CM and EM subsets, Annexin V/DAPI; type: cell-based, human
Excerpt: CMhi and EMhi and their non-effluxing IL-18Rα^lo/neg counterparts (CMlo and EMlo) were isolated using negative immunomagnetic selection of CD8^+ T cells with biotinylated antibodies to non-CD8^+ T cells, followed by surface labeling with fluorochrome-conjugated streptavidin to identify non-CD8^+ T cells, CD95, CD62L and IL-18Rα and sorting on a BD FacsARIA flow sorter. CM and EM CD8^+ T cells were defined as streptavidin^−/CD95^+/CD62L^+ or streptavidin^−/CD95^+/CD62L^−, respectively. CMhi and EMhi were defined by high expression of IL-18Rα. Effluxing and non-effluxing CM and EM subsets were cultured for 44 hours in the presence or absence of daunorubicin (an anthracycline chemotherapeutic agent, effluxed by the ABC-B1 cotransporter, MDR-1), with or without MDR-1 blockade with the peripheral benzodiazepine receptor antagonist, PK11195. Cultures were harvested, washed twice with cold PBS and stained with Annexin V and DAPI before analysis.

[2] = tested on: CM and EM CD8+ T lymphocytes; test: Rh123 efflux assay with or without vinblastine, flow cytometry; type: cell-based, human; details: PBMC loaded with 10 μg/ml Rh123, efflux 30 minutes at 37° C.
Method: PBMC were separated from fresh peripheral blood by density gradient centrifugation, washed in RPMI 1640/10% bovine serum albumin (herein known as efflux buffer) and resuspended at 1×10^6/ml in ice cold efflux buffer with 10 μg/ml Rh123. PBMC were incubated for 30 minutes on ice before washing three times in ice cold efflux buffer and resuspending in pre-warmed efflux buffer, with or without vinblastine, for 30 minutes at 37° C. At 30 minutes, PBMC were washed once in ice cold PBS/0.2% BSA (FACS buffer) and labeled with antibodies to CD4, CD16, TCRγδ, Vα24, CD3, CD8α, CD95, CD62L, CD161 and IL-18Rα for 20 minutes on ice. After washing in ice cold FACS buffer, samples were analyzed on a BD FacsARIA flow cytometer.
CM and EM subsets were identified as CD62L^+ or CD62L^− events, respectively, in the CD4^−/CD16^−/TCRγδ^−/Vα24^−/CD3^+/CD8^+/CD95^+ population. Rh123 fluorescence was identified with appropriate compensation and a 530/30 emission filter after laser excitation at 488 nm. Rh123-effluxing events were defined as those with fluorescence lower than the mean fluorescence intensity identified after culture in the presence of vinblastine efflux blockade.

[3] = target: MDR-1 (Homo sapiens, UniProt P08183); details: daunorubicin loaded at 2.5 μM, efflux 1 hour at 37° C.; vinblastine 25 μM; PK11195 and cyclosporine A data not shown
MDR-1, sequence (P08183 whole entry): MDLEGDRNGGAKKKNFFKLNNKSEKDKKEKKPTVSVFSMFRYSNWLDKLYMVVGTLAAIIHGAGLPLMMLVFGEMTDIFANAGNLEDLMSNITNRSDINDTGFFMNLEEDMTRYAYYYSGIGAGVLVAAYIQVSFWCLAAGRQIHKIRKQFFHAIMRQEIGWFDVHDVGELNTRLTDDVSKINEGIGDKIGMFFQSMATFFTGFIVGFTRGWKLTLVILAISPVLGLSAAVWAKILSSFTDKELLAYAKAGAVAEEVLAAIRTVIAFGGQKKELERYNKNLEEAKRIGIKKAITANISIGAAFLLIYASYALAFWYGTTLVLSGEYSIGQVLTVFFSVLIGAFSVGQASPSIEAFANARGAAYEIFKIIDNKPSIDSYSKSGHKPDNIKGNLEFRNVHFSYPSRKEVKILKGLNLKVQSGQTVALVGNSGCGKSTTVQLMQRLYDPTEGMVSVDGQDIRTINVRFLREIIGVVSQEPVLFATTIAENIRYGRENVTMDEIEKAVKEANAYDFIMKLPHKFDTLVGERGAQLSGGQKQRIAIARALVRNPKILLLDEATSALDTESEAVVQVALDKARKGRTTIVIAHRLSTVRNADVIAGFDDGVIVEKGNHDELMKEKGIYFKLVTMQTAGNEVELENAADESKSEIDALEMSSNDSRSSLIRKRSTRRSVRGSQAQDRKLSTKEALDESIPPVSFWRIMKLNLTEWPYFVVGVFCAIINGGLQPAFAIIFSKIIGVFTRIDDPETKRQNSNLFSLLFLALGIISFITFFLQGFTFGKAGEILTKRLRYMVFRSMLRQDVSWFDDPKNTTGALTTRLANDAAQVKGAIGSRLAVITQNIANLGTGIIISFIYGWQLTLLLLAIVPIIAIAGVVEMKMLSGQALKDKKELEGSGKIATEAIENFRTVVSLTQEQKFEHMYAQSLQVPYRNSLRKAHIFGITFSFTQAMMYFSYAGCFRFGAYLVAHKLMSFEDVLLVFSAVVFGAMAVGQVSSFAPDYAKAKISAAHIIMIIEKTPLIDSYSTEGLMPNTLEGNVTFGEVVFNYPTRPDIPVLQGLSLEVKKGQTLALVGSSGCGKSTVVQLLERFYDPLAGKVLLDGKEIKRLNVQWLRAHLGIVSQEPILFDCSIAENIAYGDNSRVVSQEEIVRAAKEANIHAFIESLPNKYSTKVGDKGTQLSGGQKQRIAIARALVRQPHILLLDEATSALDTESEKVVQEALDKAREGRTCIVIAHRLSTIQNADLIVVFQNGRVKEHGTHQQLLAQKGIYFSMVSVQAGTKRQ

CCC(C)N(C)C(=O)c1cc2ccccc2c(-c2ccccc2Cl)n1 (centres unmarked) [PK11195]
Viability of subsets cultured with PK11195 alone ([1]; PK11195 without daunorubicin, 44 hours culture): does not impair viability | Cell death of CMhi and EMhi on MDR-1 inhibition during daunorubicin culture ([1]; daunorubicin with PK11195, 44 hours culture): increased cell death

COc1cccc2c1C(=O)c1c(O)c3c(c(O)c1C2=O)C[C@@](O)(C(C)=O)C[C@@H]3O[C@H]1C[C@H](N)[C@H](O)[C@H](C)O1 [daunorubicin]
Apoptosis of CMhi and EMhi induced by culture with daunorubicin ([1]; daunorubicin 0.1 uM, 44 hours culture): resistant to apoptosis

CC[C@]1(O)C[C@@H]2CN(CCc3c([nH]c4ccccc34)[C@@](C(=O)OC)(c3cc4c(cc3OC)N(C)[C@H]3[C@@](O)(C(=O)OC)[C@H](OC(C)=O)[C@]5(CC)C=CCN6CC[C@]43[C@@H]65)C2)C1 [vinblastine]
Rh123 efflux in the presence of vinblastine [2]: blocked | Inhibition of daunorubicin efflux from CMhi and EMhi [3]: inhibition of efflux
